How the values were obtained:
[1] = test system: SiHa; assay: Potency index, ratio of cisplatin IC50 to test compound IC50 for cytotoxicity against human DDP resistant SiHa cells; assay type: functional
[2] = Tmax in C57 nude mouse at 30 mg/kg, ip measured at 0.083 to 24 hrs by LC/MS/MS analysis; assay type: ADME, organism-based; settings: in vivo, time 0.083-24 hrs
[3] = test system: HeLa; assay: Induction of cell cycle arrest in human HeLa cells assessed as accumulation of cells at G2/M phase at 0.4 uM after 24 hrs by propidium iodide staining based flow cytometric analysis (reference value: 20.3%); assay type: functional
[4] = Resistant factor, ratio of IC50 for antiproliferative activity against human SiHa/DDP cells to IC50 for human SiHa cells; assay type: functional
[5] = Acute toxicity against ICR mouse assessed as morphological changes in spleen at 1000 mg/kg, ip measured after 14 days by H and E staining method; assay type: organism-based; settings: in vivo, 336 h, time 14 day
[6] = test system: HeLa; assay: Induction of apoptosis in human HeLa cells assessed as viable cells at 0.4 uM measured after 24 hrs by Annexin V-FITC/7-AAD staining based flow cytometric analysis (reference value: 70.1%); assay type: functional; settings: read-out: Activity
[7] = Resistant factor, ratio of IC50 for antiproliferative activity against human HeLa/DDP cells to IC50 for human HeLa cells; assay type: functional
[8] = test system: HeLa; assay: Induction of apoptosis in human HeLa cells assessed as viable cells at 0.1 uM measured after 24 hrs by Annexin V-FITC/7-AAD staining based flow cytometric analysis (reference value: 70.1%); assay type: functional; settings: read-out: Activity
[9] = test system: HeLa; assay: Antitumor activity against human HeLa cells xenografted in BABL/c mouse assessed assessed as reduction in tumor volume at 60 mg/kg, ip administered daily for 21 days and measured every 3 day ( Rvb = 2336 mm3); assay type: functional; settings: time 21 day
[10] = test system: HeLa; assay: Induction of apoptosis in human HeLa cells assessed as early apoptotic cells at 0.4 uM measured after 24 hrs by Annexin V-FITC/7-AAD staining based flow cytometric analysis (reference value: 20.8%); assay type: functional
[11] = test system: HeLa; assay: Induction of cell cycle arrest in human HeLa cells assessed as S-phase at 0.1 uM measured after 24 hrs by propidium iodide staining based flow cytometric analysis analysis ( Rvb = 15.5%); assay type: functional
[12] = test system: HeLa; assay: Induction of apoptosis in human HeLa cells assessed as early apoptotic cells at 0.2 uM measured after 24 hrs by Annexin V-FITC/7-AAD staining based flow cytometric analysis (reference value: 20.8%); assay type: functional
[13] = Toxicity against BABL/c mouse assessed as glomerular crescent hyperplasia in kidney at 60 mg/kg, ip administered daily for 21 days by H and E staining method; assay type: organism-based; settings: in vivo, 504 h, time 21 day
[14] = test system: HeLa; assay: Induction of apoptosis in human HeLa cells assessed as late apoptotic cells at 0.1 uM measured after 24 hrs by Annexin V-FITC/7-AAD staining based flow cytometric analysis (reference value: 8.51%); assay type: functional
[15] = Toxicity against BABL/c mouse assessed as morphological changes in kidney at 30 to 60 mg/kg, ip administered daily for 21 days by H and E staining method; assay type: organism-based; settings: in vivo, 504 h, dose 30-60 mg/kg, time 21 day
[16] = test system: HeLa; assay: Induction of cell cycle arrest in human HeLa cells assessed as S-phase at 0.4 uM measured after 24 hrs by propidium iodide staining based flow cytometric analysis analysis ( Rvb = 15.5%); assay type: functional
[17] = Toxicity against BABL/c mouse assessed as morphological changes in spleen at 30 to 60 mg/kg, ip administered daily for 21 days by H and E staining method; assay type: organism-based; settings: in vivo, 504 h, dose 30-60 mg/kg, time 21 day
[18] = test system: HeLa; assay: Induction of cell cycle arrest in human HeLa cells assessed as < 2N cells at 0.2 uM measured after 24 hrs by propidium iodide staining based flow cytometric analysis analysis ( Rvb = 7.07%); assay type: functional
[19] = test system: HeLa; assay: Antimigratory activity against human HeLa cells at 0.4 uM measured after 24 hrs by scratch wound healing based fluorescence inverted microscopic analysis; assay type: functional
[20] = biological target: Tubulin (Sus scrofa) (UniProt P02554+P02550); assay: Inhibition of pig brain tubulin polymerization at 12.5 uM by spectrophotometer analysis relative to control; parameters: scale not given: the % may be the effect or the level left; settings: Sus scrofa domesticus
Chain of Tubulin (Sus scrofa) (P02550 whole entry, looked up): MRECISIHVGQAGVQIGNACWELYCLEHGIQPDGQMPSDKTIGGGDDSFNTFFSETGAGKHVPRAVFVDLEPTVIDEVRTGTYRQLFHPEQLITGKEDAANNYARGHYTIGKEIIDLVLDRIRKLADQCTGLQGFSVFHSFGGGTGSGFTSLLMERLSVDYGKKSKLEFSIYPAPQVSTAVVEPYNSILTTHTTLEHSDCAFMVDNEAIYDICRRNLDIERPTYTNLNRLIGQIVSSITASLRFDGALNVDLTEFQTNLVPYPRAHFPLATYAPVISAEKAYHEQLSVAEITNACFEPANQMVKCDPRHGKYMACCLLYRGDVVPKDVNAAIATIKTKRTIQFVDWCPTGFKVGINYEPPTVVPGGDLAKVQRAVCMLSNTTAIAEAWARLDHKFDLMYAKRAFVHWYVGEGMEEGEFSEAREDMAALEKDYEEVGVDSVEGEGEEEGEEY
Chain of Tubulin (Sus scrofa) (P02554 whole entry, looked up): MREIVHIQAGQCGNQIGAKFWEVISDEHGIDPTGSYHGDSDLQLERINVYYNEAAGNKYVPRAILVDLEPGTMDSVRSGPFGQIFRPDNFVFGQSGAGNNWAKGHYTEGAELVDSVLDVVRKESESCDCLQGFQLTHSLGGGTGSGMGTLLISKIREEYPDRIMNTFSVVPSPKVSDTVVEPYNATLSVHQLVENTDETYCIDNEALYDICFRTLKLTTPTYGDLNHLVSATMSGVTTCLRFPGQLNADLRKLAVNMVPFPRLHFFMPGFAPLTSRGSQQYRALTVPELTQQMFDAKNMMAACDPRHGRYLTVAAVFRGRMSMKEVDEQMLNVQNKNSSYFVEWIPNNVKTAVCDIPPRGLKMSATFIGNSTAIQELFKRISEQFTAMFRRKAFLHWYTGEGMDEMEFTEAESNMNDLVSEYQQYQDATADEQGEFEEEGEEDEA

[21] = Toxicity in BABL/c mouse xenografted with human HeLa cells assessed as body weight gain at 30 mg/kg, ip administered daily for 21 days followed by addition of 3 mg/kg DDP for every 2 days and measured every 3 days; assay type: organism-based; settings: in vivo, 504 h, time 21 day
[22] = test system: HeLa; assay: Inhibition of colony formation in human HeLa cells at 6 nM and treated for every 48 hrs with fresh medium measured after 14 days by crystal violet staining method; assay type: functional; parameters: scale not given: the % may be the effect or the level left; settings: time 14 day
[23] = test system: HeLa; assay: Induction of cell cycle arrest in human HeLa cells assessed as accumulation of cells at G2/M phase at 1.5 nM after 24 hrs by propidium iodide staining based flow cytometric analysis (reference value: 17.1%); assay type: functional
[24] = test system: HeLa; assay: Induction of cell cycle arrest in human HeLa cells assessed as 4N cells at 3 nM measured after 24 hrs by propidium iodide staining based flow cytometric analysis analysis ( Rvb = 17.1%); assay type: functional
[25] = test system: HeLa; assay: Induction of apoptosis in human HeLa cells assessed as late apoptotic cells at 6 nM measured after 24 hrs by Annexin V-FITC/7-AAD staining based flow cytometric analysis (reference value: 5.22%); assay type: functional
[26] = test system: HeLa; assay: Induction of apoptosis in human HeLa cells assessed as necrotic cells at 6 nM measured after 24 hrs by Annexin V-FITC/7-AAD staining based flow cytometric analysis (reference value: 0.45%); assay type: functional
[27] = test system: HeLa; assay: Antimigratory activity against human HeLa cells at 6 nM measured after 24 hrs by scratch wound healing based fluorescence inverted microscopic analysis; assay type: functional
[28] = test system: HeLa; assay: Induction of cell cycle arrest in human HeLa cells assessed as < 2N cells at 1.5 nM measured after 24 hrs by propidium iodide staining based flow cytometric analysis analysis ( Rvb = 9.32%); assay type: functional
[29] = test system: HeLa; assay: Induction of cell cycle arrest in human HeLa cells assessed as S-phase at 3 nM measured after 24 hrs by propidium iodide staining based flow cytometric analysis analysis ( Rvb = 23.4%); assay type: functional
[30] = test system: HeLa; assay: Induction of cell cycle arrest in human HeLa cells assessed as accumulation of cells at G2/M phase at 6 nM after 24 hrs by propidium iodide staining based flow cytometric analysis (reference value: 17.1%); assay type: functional
[31] = test system: HeLa; assay: Induction of apoptosis in human HeLa cells assessed as early apoptotic cells at 1.5 nM measured after 24 hrs by Annexin V-FITC/7-AAD staining based flow cytometric analysis (reference value: 18.8%); assay type: functional
[32] = test system: HeLa; assay: Induction of apoptosis in human HeLa cells assessed as viable cells at 1.5 nM measured after 24 hrs by Annexin V-FITC/7-AAD staining based flow cytometric analysis (reference value: 75.5%); assay type: functional; settings: read-out: Activity
[33] = test system: HeLa; assay: Induction of cell cycle arrest in human HeLa cells assessed as < 2N cells at 6 nM measured after 24 hrs by propidium iodide staining based flow cytometric analysis analysis ( Rvb = 9.32%); assay type: functional
[34] = test system: HeLa; assay: Induction of cell cycle arrest in human HeLa cells assessed as S-phase at 1.5 nM measured after 24 hrs by propidium iodide staining based flow cytometric analysis analysis ( Rvb = 23.4%); assay type: functional

**Q.** Which “Ratio IC50” value [1] does the source give for `CCOc1ccc(-c2cncnc2-c2cc(OC)c(OC)c(OC)c2)cc1Cl` here?
**A.** Its value is 2.7.

**Q.** And the Tmax [2]?
**A.** Its Tmax is 15 min.

**Q.** And the Activity [3]?
**A.** Its Activity is 71.7%.

**Q.** And the “Ratio IC50” value [4]?
**A.** Its value is 41.9.

**Q.** What about the Activity [5] of the same compound?
**A.** The Activity was “Non-Toxic”.

**Q.** And the viability at 0.4 µM [6]?
**A.** Its viability at 0.4 µM is 11.5%.

**Q.** And the “Ratio IC50” value [7]?
**A.** The value was 79.2.

**Q.** And the viability at 0.1 µM [8]?
**A.** The viability at 0.1 µM was 56.3%.

**Q.** And the Activity [9]?
**A.** The Activity was 1083 mm3.

**Q.** What about the Activity [10] of the same compound?
**A.** Its Activity is 84.4%.

**Q.** And the Activity [11]?
**A.** The Activity was 13%.

**Q.** What about the Activity [12] of the same compound?
**A.** Its Activity is 66.4%.

**Q.** And the Activity [13]?
**A.** The Activity was “Toxic”.

**Q.** What about the Activity [14] of the same compound?
**A.** Its Activity is 7.29%.

**Q.** And the Activity [15]?
**A.** The Activity was “Non-Toxic”.

**Q.** And the Activity [16]?
**A.** Its Activity is 11.4%.

**Q.** And the Activity [17]?
**A.** The Activity was “Non-Toxic”.

**Q.** What about the Activity [18] of the same compound?
**A.** The Activity was 0.59%.

**Q.** What about the Activity [19] of the same compound?
**A.** Its Activity is 50%.

**Q.** What about the Activity [20] of the same compound?
**A.** Its Activity is 77%.

**Q.** And the Activity [21]?
**A.** Its Activity is “Non-Toxic”.

**Q.** For `COc1ccc(/C=C\c2cc(OC)c(OC)c(OC)c2)cc1O` [COMBRETASTATIN A4], which Activity [22] is on record?
**A.** Its Activity is 100%.

**Q.** What about the Activity [23] of the same compound?
**A.** The Activity was 22.5%.

**Q.** What about the Activity [24] of the same compound?
**A.** Its Activity is 28.2%.

**Q.** And the Activity [25]?
**A.** Its Activity is 5.94%.

**Q.** And the Activity [26]?
**A.** The Activity was 0.62%.

**Q.** What about the Activity [27] of the same compound?
**A.** The Activity was 73%.

**Q.** What about the Activity [28] of the same compound?
**A.** Its Activity is 4.37%.

**Q.** And the Activity [29]?
**A.** The Activity was 12.1%.

**Q.** What about the Activity [30] of the same compound?
**A.** Its Activity is 35.3%.

**Q.** What about the Activity [31] of the same compound?
**A.** The Activity was 23.5%.

**Q.** And the viability at 0.0015 µM [32]?
**A.** Its viability at 0.0015 µM is 68.9%.

**Q.** And the Activity [33]?
**A.** The Activity was 16.5%.

**Q.** What about the Activity [34] of the same compound?
**A.** The Activity was 12%.
